Legend:
Colon26 = experiment: Summary of tumor regressions in Colon26 model (Example 13, FIG. 13); assay type: in vivo, mice; conditions: summary of experiments (FIG. 13)
Source text: Experimental Design. […] The experiment design of the respective experiments is summarized in the above Examples.

Colon26 tumor cells = experiment: Colon26 tumor growth, combination with cyclophosphamide (Example 8); assay type: in vivo, Balb/c mice; conditions: anti-SEMA4D 50 mg/kg IP weekly; cyclophosphamide 50 mg/kg IP days 12 and 20; endpoint 1000 mm3
Protocol: Experimental Design. 5×10^5 Colon26 tumor cells were implanted subcutaneously into the flank of female Balb/c mice. […] There were 20 mice per group. Tumors were measured with calipers 3×/week starting 5 days post implant. Animals were sacrificed when tumor volume reached 1000 mm3.
Tumor growth was measured by calipers and measurements were used to calculate tumor volume using the formula (w^2×l)/2, where w=width, smaller measurement, and l=length, in mm, of the tumor.
Regression is the lack of palpable tumor, defined by a tumor measuring <50 mm3 for at least two consecutive measurements.

## O=P1(N(CCCl)CCCl)NCCCO1 (centres unmarked) [cyclophosphamide]
Colon26
  tumor regression: 10%
Colon26 tumor cells
  Tumor Growth Delay (TGD): 96%

Reference: patent publication US12070500B2, “Use of semaphorin-4D antibodies in combination with an immune modulating therapy to inhibit tumor growth and metastasis” (Vaccinex, Inc., priority 2013, dated 2024)
